In patent US20150010502A1, “Compositions and Methods for Suppressing Gene Expression of p53 and Clusterin” (priority 2011, published 2015):
e = 2'-O-(2-methoxyethyl) (MOE); d = 2'-deoxy (DNA)

What was measured:
[1] = tested on: U2OS cells (osteosarcoma); assay: U2OS cells treated with PMO, cisplatin followed by Go6976 (FIG. 5); type: cell-based; settings: PMO 3 uM 2 h; for enhancement of sensitivity to cisplatin: Cis 5 uM 24 h
Method: FIG. 5 is a graph showing the results obtained with U2OS cells treated with PMO (3 uM, 2 h), Cis (5 uM, 24 h) followed by Go6976 (100 nM, 24 h).
(§1) In further studies, additional agents were tested in conjunction with p53 morpholinos. […] We also tested these agents on U2OS cells (osteosarcoma). Again a dramatic effect on cell cycle that is dependent on PMOs and Go is observed. PMOs give a 3-fold enhancement of drug sensitivity in the caspase 3 assay. We also assessed U2OS cells treated with PMOs (p53-A and p53-B) +/−cisplatin+/−Go6976.

[2] = tested on: U2OS cells (osteosarcoma); assay: U2OS cells treated with PMO, Dox followed by Go6976: cell cycle and caspase 3 assay (FIG. 4); type: cell-based; settings: PMO 3 uM 2 h, Dox 200 ng/ml 24 h, +/- Go6976 100 nM 24 h
Method: FIG. 4 is a graph showing the results obtained with U2OS cells treated with PMO (3 uM, 2 h), Dox (200 ng/ml, 24 h) followed by Go6976 (100 nM, 24 h).
as §1

clusterin = settings: cited from earlier work

| Compound | enhancement of sensitivity to cisplatin [1] | enhancement of drug sensitivity in the caspase 3 assay [2] [fold] | also measured |
| --- | --- | --- | --- |
| Cn1c2ccccc2c2c3c(c4c5ccccc5n(CCC#N)c4c21)CNC3=O [Go6976] | – | – | effect of Go6976 on the PMO enhancement of cisplatin sensitivity ([1]; Cis 5 uM 24 h followed by Go6976 100 nM 24 h): potentiates this enhancement |
| PMO A: p53 morpholino (PMO) with sequence corresponding to Seq Id 136 (NU(4)p53); (RX)8B CPP used in in vitro testing (CCATGGCAGTGACCCGGAAGGC; all phosphorodiamidate morpholino (PMO); (RX)8B cell-penetrating peptide conjugated, position not given here) | about 3 fold | 3 | – |
| PMO B: p53 morpholino (PMO) with sequence corresponding to Seq Id 140 (NU(7)p53); (RX)8B CPP used in in vitro testing (GCATCAAATCATCCATTGCTTG; all phosphorodiamidate morpholino (PMO); (RX)8B cell-penetrating peptide conjugated, position not given here) | about 3 fold | 3 | – |
| SEQ ID NO: 3: clusterin antisense oligo 5′-CAGCAGCAGAGTC TTCATCAT-3′, all phosphorothioate, terminal four nucleosides each end 2′-O-methyoxyethyl (CAGCAGCAGAGTCTTCATCAT; sugars from the 5' end e4 d13 e4, all phosphorothioate, methylation of C not given here) | – | – | sensitization of cancer cells to radiation and chemotherapeutic agents (clusterin; cancer cells including prostate cancer cells): modestly sensitize some cancer cells; suppressive activity on clusterin expression (clusterin): relatively poor suppressive activity; effect on induction of apoptosis (clusterin; some cancer cells, including those deficient in p21 (WAF-1) expression): can inhibit the induction of apoptosis in some cancer cells |
